Experimental data as given in publication PMC1779548, “Antihuman Immunodeficiency Virus Type 1 (HIV-1) Activity of Rare Earth Metal Complexes of 4-Hydroxycoumarins in Cell Culture” (Bioinorganic Chemistry and Applications, 2006).

Key:
HIV-1 = settings: at MNC, 72 h incubation, supernatants of HIV-1 infected MT-2 cells, averaged after at least 3 experiments
Description: Endogenous RT activity of supernatants of HIV-1 infected MT-2 cells treated/untreated with complexes and ligands was tested by HS-Lenti Kit-RT assay (Cavidi, Sweden). The kit contained recombinant RT (rRT) as a standard which made possible quantitation of the RT in the sample. The method is nonradioactive and colorimetrically detects RT activity product (DNA) at 405 nm (OD405) [3].

HIV-1LAI = assay: Microtiter infection assay (neutral red uptake), acute infection of MT-2 cells; type: cell-based; settings: for Inhibition (%): 2.5 μM, HIV-1LAI infected MT-2 cells; for anti-HIV potency (in words): MT-2/HIV-1, at or under MNC
Description: As a source of HIV-1, the supernatant of H9/HTLV III B cell line was used. The supernatants were collected and centrifuged to remove the cells, and virus stocks were prepared with known p24 antigen content, RT activity and infectivity. MT-2 cells were infected with HIV-1 (multiplicity of infection ≥ 1) in suspension (37°C/5% CO2) and then grown parallely with uninfected ones for 72 hours.
CC50 and MNC were detected by neutral red uptake assay. IC50 was studied on MT-2 cells by microtiter infection assay using neutral red uptake. Briefly, the experimental procedure under conditions of acute infection was performed in 96-well microplates in the following sequence:
(§1) • 100 μL MT-2 cells (4–5 × 10 ^4 cells); • 50 μL HIV-1 (undiluted or in the appropriate dilution to obtain multiplicity of infection ≥ 1); contact (2 hours at 37°C/5% CO2); when CC50 and MNC were detected, growth medium instead of virus has been added; • 50 μL sample of substance tested starting from 4× MNC (because this volume is 1/4 of the whole volume in the well) and 2- or 10-fold dilutions in growth medium.
(§2) The cells were incubated for 72 hours and then 100 μL of them were removed to another 96-well plate previously treated for an hour with 50 μg/mL poly-L-lysine (PLL) in volume 100 μL. A solution of 100 μL per well of neutral red in growth medium (0.016%) was added and the cells were incubated for 2 hours at 37°C/5% CO2. Neutral red dye was extracted by acidified alcohol (50% ethanol in 1% acetic acid) and measured colorimetrically at 540 nm. Each plate contained 8 cell control wells (no virus, no substance) for all kinds of experiments. When IC50 was detected, a row of 8 viral controls (plus virus, no substance) and rows of 8 experimental wells (plus virus, different dilutions of the substance) were performed. The values of optical density at 540 nm (OD540) were averaged for each row and the mean values of experimental and control rows were compared. As far as the ligands and their complexes were DMSO soluble, the appropriate controls of DMSO and DMSO + HIV-1 in growth medium were always considered.

MT-2 cells = assay: in vitro; type: cell-based; settings: for CC50 / MNC (maximal nontoxic concentration) / MNC higher compared to La(1) and the ligand (1): MT-2 cells; for CC50 / MNC (maximal nontoxic concentration): neutral red uptake, 72 h; for MNC higher compared to La(1) and the ligand (1): ratio of MNC
From the text: (§3) The following cell lines were used: H9/HTLV III B—chronically infected with HIV-1LAI cells, kindly provided by Professor R. Gallo, and MT-2 uninfected human lymphoblastoid cells, HTLV-I transformed. The cells were maintained in RPMI 1640 plus 10% FCS.
(§4) The following parameters were studied: cytotoxic concentration 50—CC50 (concentration […] death of 50% of MT-2 cells), maximal nontoxic concentration—MNC (the highest concentration causing no cytotoxicity), and inhibitory concentration 50–IC50 (concentration inhibiting by 50% the viral replication). CC50 and MNC were detected by neutral red uptake assay. IC50 was studied on MT-2 cells by microtiter infection assay using neutral red uptake. Briefly, the experimental procedure under conditions of acute infection was performed in 96-well microplates in the following sequence:
as §1, §2

[1] = tested on: H9/HTLV III B cells chronically producing HIV-1LAI; assay: Chronic infection: RT activity in supernatants of treated H9/HTLV III B cells; type: cell-based
Description: (§5) The effect of the compounds was also studied under conditions of chronic infection using productively HIV-infected cells (H9/HTLV III B). The production of infectious virions was measured again using the cytopathic effect of supernatants on MT-2 cells as described above.
(§6) To address further the target of HIV inhibition especially by La(W), a study of this complex for effect on late stages of HIV-1 life cycle (protease, budding, assembly) was carried out. To do this, we treated H9/HTLV III B cells—chronically producing HIV-1—with La(W) at 3 concentrations, starting from MNC. Also, 10× dilution of Indinavir was used as a reference for antiprotease effect. Table 7 represents the results for the effect of La(W) in 3 concentrations on late stages of HIV replication.

[2] = tested on: H9/HTLV III B cells chronically producing HIV-1LAI; assay: Chronic infection: microtiter infection assay on MT-2 cells with supernatants of treated H9/HTLV III B cells; type: cell-based; settings: undiluted supernatant on MT-2 cells
Description: as §5, §6

in vitro = type: cell-based; settings: MT-2 cells, neutral red uptake, 72 h
From the text: as §3, §4, §1, §2

SMILES: O.O.O=c1oc2ccccc2c([O-])c1C(c1ccccc1)c1c([O-])c2ccccc2oc1=O.[Ce+3].[OH-] [Ce(1)]
- HIV inhibition (%) Endogenous RT activity (HIV-1): ∼ 1%
- Inhibition (%) (HIV-1LAI; 72 h incubation): 8,7%
- anti-HIV potency (in words) (HIV-1LAI): limited anti-HIV potency
- CC50 (MT-2 cells): 25 µM
- MNC (maximal nontoxic concentration) (MT-2 cells): 12,5 μM
- MNC higher compared to La(1) and the ligand (1) (MT-2 cells): 10–50 times

SMILES: O.O=c1oc2ccccc2c([O-])c1C(c1ccccc1)c1c([O-])c2ccccc2oc1=O.[Nd+3].[OH-] [Nd(1)]
- HIV inhibition (%) Endogenous RT activity (HIV-1): ∼ 1%
- Inhibition (%) (HIV-1LAI; 72 h incubation): 10,4%
- anti-HIV potency (in words) (HIV-1LAI): limited anti-HIV potency
- HIV inhibition (%) Microtiter infection assay (HIV-1LAI; at MNC, 72 h incubation, MT-2 cells, averaged after at least 3 experiments): 10.4%
- CC50 (MT-2 cells): 125 µM
- MNC (maximal nontoxic concentration) (MT-2 cells): 2.5 µM
- lower cytotoxicity compared to the other lanthanides and the ligand (1) (MT-2 cells; ratio of CC50, MT-2 cells): at least 5 times
- MNC higher compared to La(1) and the ligand (1) (MT-2 cells): 10–50 times

SMILES: CC(C)(C)NC(=O)[C@@H]1CN(Cc2cccnc2)CCN1C[C@@H](O)C[C@@H](Cc1ccccc1)C(=O)N[C@H]1c2ccccc2C[C@H]1O [Indinavir]
- RT activity of SNs OD405 ([1]; 0.05 μM): 1.454 OD405
- RT activity of SNs OD405 ([1]; 0.5 μM): 1.400 OD405
- RT activity of SNs OD405 ([1]; 5 μM): 1.154 OD405
- RT activity of SNs OD405 ([1]; 50 μM): 0.903 OD405
- Microtiter infection assay OD540 ([2]; 0.05 μM): 0.739 OD540
- Microtiter infection assay OD540 ([2]; 0.5 μM): 0.633 OD540
- Microtiter infection assay OD540 ([2]; 5 μM): 0.520 OD540
- Microtiter infection assay OD540 ([2]; 50 μM): 0.375 OD540

SMILES: O=c1oc2ccccc2c(O)c1C(c1ccccc1)c1c(O)c2ccccc2oc1=O [(1), 3,3′-benzylidenebis[4-hydroxycoumarin]]
- CC50 at 72 h (in vitro): 25 µM
- MNC (maximal nontoxic concentration) (MT-2 cells): 0,25 μM

SMILES: O.O=c1oc2ccccc2c([O-])c1C(c1ccccc1)c1c([O-])c2ccccc2oc1=O.[La+3].[OH-] [La(1)]
- CC50 (MT-2 cells): 25 µM
- MNC (maximal nontoxic concentration) (MT-2 cells): 0,25 μM

SMILES: CC(=O)CC(c1ccccc1)c1c(O)c2ccccc2oc1=O (centres unmarked) [(W), 4-hydroxy-3-(3-oxo-1-phenylbutyl)-2H-1-benzopyran-2-one, reference compound]
- HIV inhibition (%) Endogenous RT activity (HIV-1): ∼ 1%
- CC50 at 72 h (in vitro): 250 µM
- MNC (maximal nontoxic concentration) (MT-2 cells): 25 µM
